Results from paper PMC5887109, “Unravelling the Molecular Determinants of Bee Sensitivity to Neonicotinoid Insecticides” (Current Biology, 2018).
Values belong to the molecule of their own block, whether it stands above or below them.

Assays:
[1] = test system: honeybee; settings: cited from earlier work
[2] = molecular target: T1, CYP9Q4 (Bombus terrestris, UniProt A0A9B0BBT5); test: Activity of recombinant CYP9Q4 against fluorescent coumarin model substrates; format: biochemical, B. terrestris
T1 sequence (A0A9B0BBT5 entry or part of it, one chain of several): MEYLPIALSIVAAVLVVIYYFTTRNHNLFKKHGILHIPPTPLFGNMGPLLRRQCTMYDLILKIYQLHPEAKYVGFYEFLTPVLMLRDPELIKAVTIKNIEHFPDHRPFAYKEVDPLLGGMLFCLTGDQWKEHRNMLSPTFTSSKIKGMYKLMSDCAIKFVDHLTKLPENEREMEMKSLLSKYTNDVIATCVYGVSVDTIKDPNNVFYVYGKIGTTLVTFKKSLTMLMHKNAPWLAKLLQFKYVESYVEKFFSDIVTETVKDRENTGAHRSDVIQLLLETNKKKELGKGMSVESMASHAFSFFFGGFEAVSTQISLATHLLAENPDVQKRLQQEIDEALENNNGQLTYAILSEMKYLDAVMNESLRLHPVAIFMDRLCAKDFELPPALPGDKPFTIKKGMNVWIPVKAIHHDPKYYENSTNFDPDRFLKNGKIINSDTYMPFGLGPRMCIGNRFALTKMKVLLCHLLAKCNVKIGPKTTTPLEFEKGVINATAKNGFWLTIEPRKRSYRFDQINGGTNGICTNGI
Experimental: (§1) The activity of individual A. mellifera and B. terrestris recombinant P450s were tested against seven fluorescent model substrates (all purchased from Sigma); 7-methoxy-coumarin (MC), 7-Methoxy-4-(tri-fluoromethyl)-coumarin (MFC), 7-ethoxy-coumarin (EC), 7-benzyloxy-4-(trifluoromethyl)-coumarin (BFC), 7-ethoxy-4-trifluoro-methylcoumarin (EFC), 7-benzyloxymethoxy-4-trifluoromethyl coumarin (BOMFC), and 7-p-methoxy-benzyloxy-4-trifluoro coumarin (MOBFC). Assays were carried out in black flat-bottomed 96-well plates in a 100 μL reaction containing 2 pmol of P450 per 50 μg of protein (B. terrestris) or 50 μg/well (A. mellifera), 1 mM of NADPH (Sigma) and […] of a model substrate (Sigma). Three replicates were carried out for each data point. P450s incubated without NADPH and wells containing only potassium phosphate buffer served as controls. Samples were incubated at 25°C for 45 min (B. terrestris) or 30°C for 30 min (A. mellifera). Data were recorded using a SpectraMax Gemini XPS (B. terrestris) or a SpectraMax M2 (A. mellifera) at the excitation/emission wavelength suitable for each model substrate (MC, EC at 390-465, BFC, MFC at 410-535, EFC at 410-510 and BOMFC and MOBFC at 405-510 nm). As these substrates have a similar emission wavelength to NADPH (460 nm) the reaction was terminated prior to measurement by the addition of 100μL of a stop solution (25% DMSO, 0.05 M Tris/HCL pH10, 5 mM glutathione oxidised, and 0.2 U glutathione reductase). The reactions were incubated at 25°C (B. terrestris) or 30°C (A. mellifera) for a further 15 min and the data were recorded at the required excitation/emission wavelengths stated above. 7-hydroxy-4-(trifluoromethyl)-coumarin (HFC) (Sigma) was used to generate a standard curve for model substrates BFC, EFC, MFC, MOBFC, and BOMFC and 7-hydroxycoumarin (HC) (Sigma) for model substrates EC and MC. […] The florescence was measured as above at the corresponding wavelengths for each model substrate. […] This was then subtracted from the average fluorescence measurement of each P450 along with the average control measurements.

[3] = molecular target: T2, CYP9Q1 (Apis mellifera, UniProt A0A7M7GTV9); test: Activity of recombinant CYP9Q1 against fluorescent coumarin model substrates; format: biochemical, A. mellifera
T2 sequence (A0A7M7GTV9 entry or part of it, one chain of several): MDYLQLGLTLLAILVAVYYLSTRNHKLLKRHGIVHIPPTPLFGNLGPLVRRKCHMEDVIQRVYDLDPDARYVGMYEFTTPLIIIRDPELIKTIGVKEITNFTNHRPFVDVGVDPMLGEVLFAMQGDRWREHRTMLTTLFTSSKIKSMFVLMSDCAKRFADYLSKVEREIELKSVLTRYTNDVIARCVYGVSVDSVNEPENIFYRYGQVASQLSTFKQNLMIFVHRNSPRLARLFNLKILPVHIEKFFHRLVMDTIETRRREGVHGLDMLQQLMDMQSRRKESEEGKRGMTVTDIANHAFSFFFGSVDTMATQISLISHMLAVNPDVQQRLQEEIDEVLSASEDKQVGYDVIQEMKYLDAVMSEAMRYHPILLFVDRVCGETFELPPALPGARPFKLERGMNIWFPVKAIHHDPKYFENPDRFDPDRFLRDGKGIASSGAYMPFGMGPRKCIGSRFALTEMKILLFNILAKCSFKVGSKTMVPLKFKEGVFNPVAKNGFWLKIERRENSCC
Experimental: as §1, with “Three replicates were carried out for each data point. P450s incubated without NADPH and wells containing only potassium phosphate buffer served as controls. Samples were incubated at 25°C for 45 min (B. terrestris) or 30°C for 30 min (A. mellifera).” left out, “As these substrates have a similar emission wavelength to NADPH (460 nm) the reaction was terminated prior to measurement by the addition of 100μL of a stop solution (25% DMSO, 0.05 M Tris/HCL pH10, 5 mM glutathione oxidised, and 0.2 U glutathione reductase).” left out, “above.” for “above. 7-hydroxy-4-(trifluoromethyl)-coumarin (HFC) (Sigma) was used to generate a standard curve for model substrates BFC, EFC, MFC, MOBFC, and BOMFC and 7-hydroxycoumarin (HC) (Sigma) for model substrates EC and MC.”

[4] = molecular target: T3, CYP9Q3 (Apis mellifera, UniProt A0A7M7LMV1); test: Activity of recombinant CYP9Q3 against fluorescent coumarin model substrates; format: biochemical, A. mellifera
T3 sequence (A0A7M7LMV1 entry or part of it, one chain of several): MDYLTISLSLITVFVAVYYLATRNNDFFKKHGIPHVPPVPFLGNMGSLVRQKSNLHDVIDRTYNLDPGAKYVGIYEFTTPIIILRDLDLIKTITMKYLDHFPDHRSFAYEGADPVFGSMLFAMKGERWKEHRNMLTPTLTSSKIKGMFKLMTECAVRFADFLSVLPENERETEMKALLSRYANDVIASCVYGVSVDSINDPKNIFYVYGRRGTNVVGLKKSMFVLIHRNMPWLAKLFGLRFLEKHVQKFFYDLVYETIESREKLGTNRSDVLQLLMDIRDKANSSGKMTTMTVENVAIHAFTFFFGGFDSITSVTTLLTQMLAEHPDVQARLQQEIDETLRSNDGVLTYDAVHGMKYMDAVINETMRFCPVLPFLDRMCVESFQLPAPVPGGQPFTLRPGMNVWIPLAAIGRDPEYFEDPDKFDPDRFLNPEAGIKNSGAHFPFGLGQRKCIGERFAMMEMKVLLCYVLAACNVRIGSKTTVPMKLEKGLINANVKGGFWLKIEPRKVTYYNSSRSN
Experimental: as §1, with “Three replicates were carried out for each data point. P450s incubated without NADPH and wells containing only potassium phosphate buffer served as controls. Samples were incubated at 25°C for 45 min (B. terrestris) or 30°C for 30 min (A. mellifera).” left out, “As these substrates have a similar emission wavelength to NADPH (460 nm) the reaction was terminated prior to measurement by the addition of 100μL of a stop solution (25% DMSO, 0.05 M Tris/HCL pH10, 5 mM glutathione oxidised, and 0.2 U glutathione reductase).” left out, “above.” for “above. 7-hydroxy-4-(trifluoromethyl)-coumarin (HFC) (Sigma) was used to generate a standard curve for model substrates BFC, EFC, MFC, MOBFC, and BOMFC and 7-hydroxycoumarin (HC) (Sigma) for model substrates EC and MC.”

[5] = test system: CYP9Q5; test: Activity of recombinant CYP9Q5 against fluorescent coumarin model substrates; format: biochemical, B. terrestris
Experimental: as §1, with “Three replicates were carried out for each data point. P450s incubated without NADPH and wells containing only potassium phosphate buffer served as controls. Samples were incubated at 25°C for 45 min (B. terrestris) or 30°C for 30 min (A. mellifera).” left out, “As these substrates have a similar emission wavelength to NADPH (460 nm) the reaction was terminated prior to measurement by the addition of 100μL of a stop solution (25% DMSO, 0.05 M Tris/HCL pH10, 5 mM glutathione oxidised, and 0.2 U glutathione reductase).” left out, “above.” for “above. 7-hydroxy-4-(trifluoromethyl)-coumarin (HFC) (Sigma) was used to generate a standard curve for model substrates BFC, EFC, MFC, MOBFC, and BOMFC and 7-hydroxycoumarin (HC) (Sigma) for model substrates EC and MC.”

[6] = molecular target: T2, CYP9Q1; test: in vitro; settings: hydroxylation (thiacloprid, imidacloprid) or N-desmethylation (acetamiprid)
From the text: (§2) All bee P450 (see Table S3 for accession numbers) and house fly NADPH-dependent cytochrome P450 reductase (CPR) (GenBank accession number Q07994) genes were obtained by gene synthesis (Geneart, CA, USA) and inserted into the pDEST8 expression vector (Invitrogen). Codon optimization of all bee genes was used to optimize expression in lepidopteran cell lines. The PFastbac1 vector with no inserted DNA was used to produce a control virus. The recombinant baculovirus DNA was constructed and transfected into Trichoplusia ni (High five cells, Thermo Fisher) using the Bac-to-Bac baculovirus expression system (Invitrogen) according to the manufacturer’s instructions. The titer of the recombinant virus was determined following protocols of the supplier. High Five cells grown to a density of 2 × 10^6 cells ml^-1 were co-infected with recombinant baculoviruses containing each bee P450 and CPR with a range of MOI (multiplicity of infection) ratios to identify the optimal conditions. Control cells were co-infected with the baculovirus containing vector with no insert (ctrl-virus) and the recombinant baculovirus expressing CPR using the same MOI ratios. Ferric citrate and δ-aminolevulinic acid hydrochloride were added to a final concentration of 0.1 mM at the time of infection and 24 h after infection to compensate the low levels of endogenous heme in the insect cells. After 48 h, cells were harvested, washed with PBS, and microsomes of the membrane fraction prepared according to standard procedures and stored at −80°C [31]. Briefly, pellets were homogenized for 30 s in 0.1M Na/K-phosphate buffer, pH 7.4 containing 1mM EDTA and DTT and 200mM sucrose using a Fastprep (MP Biomedicals), filtered through miracloth and centrifuging for 10 min at 680 g at 4°C. The supernatant was then centrifuged for 1 h at 100,000 g at 4°C, with the pellet subsequently resuspended in 0.1M Na/K-phosphate buffer, pH 7.6 containing 1mM EDTA and DTT and 10% glycerol using a Dounce tissue grinder. P450 expression and functionality was estimated by measuring CO-difference spectra in reduced samples using a Specord 200 Plus Spectrophotometer (Analytik Jena) and scanning from 500 nm to 400 nm. The protein content of samples was determined using Bradford reagent (Sigma) and bovine serum albumin (BSA) as a reference.
(§3) The total assay volume was 200 μL using three replicates for each data point. Microsomes incubated without NADPH served as a control. The assay was stopped by the addition of ice-cold acetonitrile (to 80% final concentration), centrifuged for 10 min at 3000 g and the supernatant subsequently analyzed by tandem mass spectrometry as described previously. For the chromatography on a Waters Acquity HSS T3 column (2.1x50mm, 1.8μm), acetonitrile/water/0.1% formic acid was used as the eluent in gradient mode. […] The peak integrals were calibrated externally against a standard calibration curve. […] Substrate turnover from two independent reactions were plotted versus controls and Michaelis-Menten kinetics determined using GraphPad Prism version 7 (GraphPad Software, CA, USA).

[7] = molecular target: T4, CYP9Q2 (Apis mellifera, UniProt A0A7M7R6F2); test: in vitro; settings: hydroxylation (thiacloprid, imidacloprid) or N-desmethylation (acetamiprid)
T4 sequence (A0A7M7R6F2 1-532): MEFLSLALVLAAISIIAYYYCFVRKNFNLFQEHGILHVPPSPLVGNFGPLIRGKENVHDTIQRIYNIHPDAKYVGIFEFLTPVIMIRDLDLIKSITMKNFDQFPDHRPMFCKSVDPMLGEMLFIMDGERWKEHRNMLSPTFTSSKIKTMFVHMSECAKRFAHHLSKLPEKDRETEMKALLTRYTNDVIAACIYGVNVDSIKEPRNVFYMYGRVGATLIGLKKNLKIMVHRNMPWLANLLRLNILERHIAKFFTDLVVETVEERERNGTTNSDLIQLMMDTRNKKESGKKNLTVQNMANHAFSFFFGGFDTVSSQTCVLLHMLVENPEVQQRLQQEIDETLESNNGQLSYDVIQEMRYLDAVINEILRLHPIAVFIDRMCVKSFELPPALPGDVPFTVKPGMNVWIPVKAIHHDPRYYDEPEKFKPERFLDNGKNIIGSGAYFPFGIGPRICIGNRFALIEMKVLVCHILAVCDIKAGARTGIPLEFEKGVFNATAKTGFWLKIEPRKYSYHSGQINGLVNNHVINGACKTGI
T4 sequence (Q07994 1-671 partner): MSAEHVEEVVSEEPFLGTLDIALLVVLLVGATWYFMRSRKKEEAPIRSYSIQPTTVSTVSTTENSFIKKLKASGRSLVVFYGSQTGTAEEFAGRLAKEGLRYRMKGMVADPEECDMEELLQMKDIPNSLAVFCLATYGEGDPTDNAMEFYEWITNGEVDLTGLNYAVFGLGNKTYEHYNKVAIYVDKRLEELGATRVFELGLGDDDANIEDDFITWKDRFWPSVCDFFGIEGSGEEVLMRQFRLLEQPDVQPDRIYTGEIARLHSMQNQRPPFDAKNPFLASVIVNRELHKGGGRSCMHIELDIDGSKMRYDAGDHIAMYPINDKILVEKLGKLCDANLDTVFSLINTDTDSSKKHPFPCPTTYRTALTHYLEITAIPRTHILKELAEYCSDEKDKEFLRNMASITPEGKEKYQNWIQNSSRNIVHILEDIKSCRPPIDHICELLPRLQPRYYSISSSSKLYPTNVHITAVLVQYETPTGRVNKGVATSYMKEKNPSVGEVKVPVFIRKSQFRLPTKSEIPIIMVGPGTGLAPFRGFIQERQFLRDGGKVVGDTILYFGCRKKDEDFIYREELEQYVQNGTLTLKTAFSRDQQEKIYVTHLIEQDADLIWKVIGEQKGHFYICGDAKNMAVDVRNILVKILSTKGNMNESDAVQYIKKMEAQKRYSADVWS
From the text: as §2, §3

[8] = molecular target: T3, CYP9Q3; test: in vitro; settings: hydroxylation (thiacloprid, imidacloprid) or N-desmethylation (acetamiprid)
From the text: as §2, §3

[9] = molecular target: T1, CYP9Q4; test: Metabolism by recombinant CYP9Q4/CPR microsomes, LC-MS/MS; settings: hydroxylation (thiacloprid) or N-desmethylation (acetamiprid)
From the text: as §2
(§4) The total assay volume was 200 μL using three replicates for each data point. […] The assay was stopped by the addition of ice-cold acetonitrile (to 80% final concentration), centrifuged for 10 min at 3000 g and the supernatant subsequently analyzed by tandem mass spectrometry as described previously. […] Substrate turnover from two independent reactions were plotted versus controls and Michaelis-Menten kinetics determined using GraphPad Prism version 7 (GraphPad Software, CA, USA).

[10] = test system: CYP9Q5; test: Metabolism by recombinant CYP9Q5/CPR microsomes, LC-MS/MS; settings: hydroxylation (thiacloprid) or N-desmethylation (acetamiprid)
From the text: as §2, §4

SMILES: CCCC1COC(Cn2cncn2)(c2ccc(Cl)cc2Cl)O1 (stereo not shown) [propiconazole]
- effect of P450 inhibitor on honeybee sensitivity to imidacloprid ([1]; synergist plus imidacloprid): almost no effect
- increase of honeybee sensitivity to thiacloprid by P450 inhibitor ([1]; synergist plus thiacloprid): 559 fold

- activity against fluorescent coumarin model substrate (in words) [2]: activity
SMILES: COc1ccc2c(C(F)(F)F)cc(=O)oc2c1 [MFC, 7-methoxy-4-trifluoromethyl coumarin]

SMILES: COc1ccc(COc2ccc3c(C(F)(F)F)cc(=O)oc3c2)cc1 [MOBFC, 7-p-methoxy-benzyloxy-4-trifluoro coumarin]
- activity against fluorescent coumarin model substrate (in words) [2]: activity

SMILES: O=c1cc(C(F)(F)F)c2ccc(OCc3ccccc3)cc2o1 [BFC, 7-benzyloxy-4-trifluoromethyl coumarin]
- activity against fluorescent coumarin model substrate (in words) [3]: highest specific activity
- activity against fluorescent coumarin model substrate (in words) [4]: highest specific activity
- activity against fluorescent coumarin model substrate (in words) [2]: no activity
- activity against fluorescent coumarin model substrate (in words) [5]: no activity

SMILES: C/C(=N\C#N)N(C)Cc1ccc(Cl)nc1 [acetamiprid]
- metabolism by the recombinant P450 (in words) [6]: capacity to metabolize
- metabolism by the recombinant P450 (in words) [7]: highest activity
- metabolism by the recombinant P450 (in words) [8]: highest activity
- metabolism by the recombinant P450 (in words) [9]: highest activity
- metabolism by the recombinant P450 (in words) [10]: highest activity
